“Also recorded” adds a separate entry of the source.
Experiments:
[1] = target: T1, ovine cyclooxygenase-1 (COX-1) (Ovis aries, UniProt P05979); experiment: In vitro COX inhibition assay (enzyme immunoassay kit), COX-1; type: biochemical; conditions: ovine COX-1, enzyme immunoassay kit
T1 construct: purchased Cayman Chemical 560131
T1 sequence (P05979 25-600): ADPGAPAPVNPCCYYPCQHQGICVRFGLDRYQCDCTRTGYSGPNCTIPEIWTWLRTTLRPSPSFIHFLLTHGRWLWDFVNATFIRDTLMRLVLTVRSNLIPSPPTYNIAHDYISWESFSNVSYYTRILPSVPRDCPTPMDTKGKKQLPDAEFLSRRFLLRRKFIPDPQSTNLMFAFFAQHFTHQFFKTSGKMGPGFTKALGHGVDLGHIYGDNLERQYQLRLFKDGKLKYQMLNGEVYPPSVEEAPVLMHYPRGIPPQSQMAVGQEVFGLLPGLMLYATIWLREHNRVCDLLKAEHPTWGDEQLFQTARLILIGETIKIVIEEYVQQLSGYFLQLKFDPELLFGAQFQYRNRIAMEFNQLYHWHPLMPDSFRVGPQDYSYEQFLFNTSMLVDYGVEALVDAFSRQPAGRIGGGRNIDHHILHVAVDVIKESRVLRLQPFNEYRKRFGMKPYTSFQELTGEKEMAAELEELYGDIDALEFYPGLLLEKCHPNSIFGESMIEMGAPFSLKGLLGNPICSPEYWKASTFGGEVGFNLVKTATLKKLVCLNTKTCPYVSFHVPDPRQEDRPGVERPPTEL
Protocol: The inhibition ability of 1-methylhydantoin cinnamic imides to ovine cyclooxygenase-1 (COX-1) and cyclooxygenase-2 (COX-2) was determined using an enzyme immunoassay kit. […] The Cell Counting Kit-8 (CCK-8) method was used to detect the cytotoxicity of the five target compounds (1–5) on lipopolysaccharide (LPS)-induced RAW264.7 cells. When the concentrations of compounds 1, 3 and 5 are lower than 20 μM, and when the concentrations of compounds 2 and 4 are lower than 80 μM, the survival rate of RAW264.7 cells is more than 95%, which has no obvious damage to cell survival and can be used for subsequent in vitro anti-inflammatory activity experiments to provide the basis.
The inhibition ability of ovine COX-1 and COX-2 was determined using an enzyme immunoassay kit (560131, Cayman Chemical, Ann Arbor, MI, USA) following the manufacturer’s instructions.

[2] = tested on: TNF-α secretion in RAW264.7 cells induced by LPS; experiment: TNF-α content in supernatant of LPS-induced RAW264.7 cells (ELISA); type: cell-based, mouse
Protocol: Tumor necrosis factor-α (TNF-α) is a pleiotropic proinflammatory cytokine, known for its proinflammatory activity. To explore the inhibitory effects of five compounds on TNF-α, ELISA was used to determine the content of inflammatory factor TNF-α in the supernatant of RAW264.7 cells stimulated by LPS. RAW264.7 cells secreted a large amount of inflammatory-factor TNF-α 24 h after LPS (1 ug/mL) induction.
(§1) RAW264.7 mouse macrophages were purchased from Zhongqiao Xinzhou and cultured in DMEM supplemented with 10% fetal bovine serum (FBS) and 1% penicillin/streptomycin in a 37 °C, 5% CO2 incubator. The cells were passaged every two days to maintain the monolayer cell state.
(§2) The RAW264.7 cells in the logarithmic growth phase were seeded in a 24-well plate and placed in a 37 °C, 5% CO2 constant temperature incubator for culture. After 24 h, the culture medium was discarded. The blank group was added with 10% FBS DMEM 1 mL. The group was added with a medium containing 1 ug/mL LPS, and the experimental group was added with LPS and different concentrations of the target compound to make the final volume 1 mL. After 24 h of culture, the cell supernatant was taken and stored in a refrigerator at −20 °C for later use. The Griess kit was used to determine the concentration of NO in the supernatant, and a double antibody sandwich ELISA kit was used to detect TNF-α and IL-1β.

[3] = tested on: xylene-induced ear edema in mice; experiment: Xylene-induced ear edema in mice; type: in vivo, Kunming mice; conditions: for Degree of Edema: 30 μL xylene, 30 min, mean ± SD, n = 6; for Inhibition of ear swelling: xylene-induced ear edema
Protocol: To evaluate the differences in anti-inflammatory effects of the five compounds, the in vivo anti-inflammatory experiment was conducted based on the acute inflammation model of ear swelling induced by xylene. Under the inflammatory effect of 30 μL of xylene, the degree of ear swelling in the blank group and each experimental group was different. […] With an increase in dose the degree of ear swelling decreased, and the effect of ear swelling inhibition was more significant at high dose (100 mg/kg). Under the action of drugs, the five target compounds (1–5) have significant inhibitory effects on ear swelling (Figure 6).
Adult male Kunming mice (18–20 g) were bought from Liaoning Changsheng Biotechnology Co., Ltd. (Shenyang, China, License No. SCXK (Liao) 2015-0001). The breeding is carried out under standard conditions without pathogens (constant room temperature 20–22 °C, 55 ± 5% humidity, 12 h light–dark cycle and free access to food and water). The research protocol has been approved by the Animal Experiment Ethics Committee of the School of Pharmacy of Jilin University (20190048). All experimental operations follow the principles of laboratory animal care, and all animal experiments are conducted in accordance with the Guide for the Care and Use of Laboratory Animals (released by the National Research Council).
In this experiment, Kunming mice were randomly divided into two groups. One group was given 5% sodium carboxymethyl cellulose solution as the blank group, and the other group was given different concentrations of the target compound as the experimental group (high, medium and low doses); continuous intragastric administration was two days and the volume of intragastric administration was 0.2 mL. One hour after the last administration, 30 μL of xylene was evenly smeared on both sides of the mouse’s right ear. After 30 min, the mouse’s right ear was obviously red and swollen and the capillary congestion was severe. Cervical vertebrae were dislocated and sacrificed. The ears on both sides were quickly cut off, an 8 mm ear punch was used to punch holes at the same position on the ears on both sides and they were immediately weighed to calculate the weight difference.
The formula for the difference in ear weight is as follows:(2) D=Wr−Wl where Wr was the weight of the right ear and Wl was the weight of the left ear.
The formula for the inhibition rate of ear swelling is as follows:(3) Inhibition %=Dc−Dt/Dc×100% where Dc was the extent of ear edema of the control group and Dt was the extent of ear edema of the treatment group.

[4] = tested on: NO release from RAW264.7 cells induced by LPS; experiment: NO content in supernatant of LPS-induced RAW264.7 cells (Griess); type: cell-based, mouse; conditions: for inhibition of NO production: 80 μM, LPS 1 ug/mL, 24 h, RAW264.7; for inhibition of NO release: LPS-stimulated RAW264.7, concentration not stated
Protocol: NO is an important indicator to predict the anti-inflammatory effects of drugs. It has been identified as a proinflammatory cytokine in various inflammatory diseases. NO can induce vasodilation, recruit neutrophils and […] the activation of mast cells, leading to tissue damage. It is essential to reduce the production of NO for inflammatory release. To explore the anti-inflammatory effects of the five compounds, the LPS-induced inflammatory response of RAW264.7 cells was carried out. The NO content in the cell supernatant was measured by the Griess method to evaluate the inhibitory effects of these five compounds on NO production.
as §1, §2

[5] = 80 μM, LPS 1 ug/mL, 24 h, RAW264.7, vs model group
[6] = LPS-stimulated RAW264.7, concentration not stated
[7] = 25 mg/kg intragastric for two days
[8] = 50 mg/kg intragastric for two days
[9] = 100 mg/kg (high dose) intragastric
[10] = 100 mg/kg intragastric for two days

Compound	IC50 [1] [µM]	inhibition of TNF-α secretion ([2]; 20 μM, LPS 1 ug/mL, 24 h, RAW264.7, vs model group)	inhibition of TNF-α secretion [2, 5]	inhibition of TNF-α secretion [2, 6]	Degree of Edema [3, 7] [mg]	Inhibition of ear swelling ([3]; 25 mg/kg intragastric) [%]	Degree of Edema [3, 8] [mg]	Inhibition of ear swelling ([3]; 50 mg/kg intragastric) [%]	Inhibition of ear swelling [3, 9] [%]	Degree of Edema [3, 10] [mg]	inhibition of NO production [4]	inhibition of NO release [4]
CN1CC(=O)N(C(=O)/C=C/c2ccco2)C1=O [Compound 2, (E)-3-(3-(furan-2-yl)acryloyl)-1-methylimidazolidine-2,4-dione]	56 ± 6	no obvious inhibitory effect on TNF-α	significantly reduce the secretion of TNF-α	reduce the secretion of TNF-α	8.68 ± 0.79	29.14	7.96 ± 0.23	35.02	49.47	6.19 ± 1.13	showed a significant effect on NO	significantly inhibit the release of NO
CC(=O)Oc1ccc(/C=C/C(=O)N2C(=O)CN(C)C2=O)cc1 [Compound 4, (E)-4-(3-(3-methyl-2,5-dioxoimidazolidin-1-yl)-3-oxoprop-1-en-1-yl)phenyl acetate]	37 ± 4		significantly reduce the secretion of TNF-α; also recorded: most significant	reduce the secretion of TNF-α; also recorded: significantly inhibited the secretion of inflammatory factors TNF-α	11.03 ± 0.32	9.96	8.79 ± 0.76	28.24	40.16	7.33 ± 0.51	showed a significant effect on NO	significantly inhibit the release of NO; also recorded: reduced the release of NO
